Assay results taken from patent US10495648B2, “Methods of treating liver fibrosis” (GILEAD SCIENCES, INC., priority 2017, dated 2019).
“And” between values parts separate entries of the source, which are not always exact repeats. Equal values may be shown once.

What was measured:
Assay type in all cases: in vivo, human
plasma miRNAs = assay: Plasma miRNA qPCR in phase 2 study GS-US-384-1497, miRNAs modulated by SEL treatment
Source text: Plasma samples were obtained from 72 subjects enrolled in the GS-US-384-1497 Gilead study. The study is a phase 2 study evaluating the safety, tolerability, and efficacy of selonsertib (ASK1 inhibitor) alone or in combination with simtuzumab (SIM) in subjects with Nonalcoholic Steatohepatitis (NASH) and fibrosis stages F2-F3. The inclusion criteria included patients with metabolic syndrome, serum ALT≥1.5×ULN and ≤5×ULN, and Fibroscan that measures liver stiffness: ≥7 kPa and <12 kPa, or NAS score greater ≥5 with fibrosis stage 2 to 3.
Total RNA samples were isolated and 301 selected miRNA were measured by qPCR. MiRNA expression levels were normalized using the global mean of all expressed miRNAs. Differential expression analyses were performed using limma method; p-values in multiple comparisons were corrected using the Benjamini-Hochberg method. Spearman correlations were calculated between miRNA expression with fibrosis stage and NAS score at baseline and at week 24.
11 miRNAs (hsa-miR-505-3p, hsa-miR-29a-3p, hsa-miR-215-5p, hsa-miR-148a-3p, hsa-miR-99a-5p, hsa-miR-885-5p, hsa-miR-122-5p, hsa-miR-34a-5p, hsa-miR-365a-3p, hsa-miR-194-5p, hsa-miR-155-5p) with nominal […] were modulated by SEL treatment, see Table 2 below.

plasma miRs = assay: Plasma miR qPCR in GS-US-321-0105 and GS-US-321-0106, association with SIM treatment
Description: Screen failed subjects were included in the analysis to ensure the miRs were analyzed in all the fibrosis stages. The samples analyzed after quality control, which excluded samples that were hemolyzed and samples that had overall low expression of miRs.
Plasma miRs were isolated with spike-in controls using total RNA isolation kit (Exiqon, Denmark). Complementary DNA was synthesized with spike-in control using the Exiqon cDNA synthesis kit and selected plasma miRs (n=157) were measured at BL, W12, and W24 by qPCR using the Exiqon platform (Covance, USA). For the 1497 study, 301 miRs were measured but only 132 miRs were expressed therefore for the 105/106 studies we measured the 132 miRs with 25 additional miRs were measured for the 105/106 study. The data was normalized using Global fit method of normalization.

NASH patients = assay: Safety and efficacy of SIM in NASH patients, studies GS-US-321-0105 and GS-US-321-0106 (fibrosis)
Description: The miR analysis was expanded to using GS-US-321-0105 and GS-US-321-0106 studies where biopsy proven samples were used from NASH patients. These studies had evaluated the safety and efficacy of Simtuzamab (SIM) in NASH patients. […] It was observed that 20% of the samples had fibrosis improvement, 20% fibrosis […] and for the rest of the subjects the fibrosis remained unchanged. As these samples represented the natural history of fibrosis changes, miR expression was analyzed in these samples.
Subjects in GS-US-384-1497 phase 2 trials were enrolled with F2-3 Stages of fibrosis and subjects in GS-US-321-0105 phase 2 trial were enrolled with F3 Stage of fibrosis and GS-US-321-0106 phase 2 trial subjects were enrolled with F4 stage of fibrosis.

Row | Molecule | Fold Change miR-29a-3p (plasma miRNAs; 6 mg SEL ± SIM, week 24) | Fold Change miR-34a-5p (plasma miRNAs; 6 mg SEL ± SIM, week 24) | Fold Change miR-99a-5p (plasma miRNAs; 6 mg SEL ± SIM, week 24) | Fold Change miR-122-5p (plasma miRNAs; 6 mg SEL ± SIM, week 24) | Fold Change miR-148a-3p (plasma miRNAs; 6 mg SEL ± SIM, week 24) | Fold Change miR-194-5p (plasma miRNAs; 6 mg SEL ± SIM, week 24) | Fold Change miR-215-5p (plasma miRNAs; 6 mg SEL ± SIM, week 24) | Fold Change miR-365a-3p (plasma miRNAs; 6 mg SEL ± SIM, week 24) | Fold Change miR-505-3p (plasma miRNAs; 6 mg SEL ± SIM, week 24) | Fold Change miR-885-5p (plasma miRNAs; 6 mg SEL ± SIM, week 24) | Fold Change miR-34a-5p (plasma miRNAs; 18 mg SEL ± SIM, week 24) | Fold Change miR-99a-5p (plasma miRNAs; 18 mg SEL ± SIM, week 24) | Fold Change miR-155-5p (plasma miRNAs; 18 mg SEL ± SIM, week 24) | Fold Change miR-885-5p (plasma miRNAs; 18 mg SEL ± SIM, week 24) | number of miRNAs modulated by SEL treatment (plasma miRNAs; GS-US-384-1497, week 24) | miRs associated with SIM treatment (plasma miRs) | effect on fibrosis (NASH patients)
1 | Cc1cc(F)c(C(=O)Nc2cccc(-c3nncn3C(C)C)n2)cc1-n1cnc(C2CC2)c1 [SEL, selonsertib] | −1.23 | −1.54 | −1.33 | −1.42 | −1.28 | −1.30 | −1.27 | −1.65 | −1.24 | −1.37 | −1.33 | −1.25 | 1.33 | −1.56 | 11 and 12 |  | 
2 | simtuzumab (antibody, chains of the INN, looked up, V domains shown) VH: QVQLVQSGAEVKKPGASVKVSCKASGYAFTYYLIEWVRQAPGQGLEWIGVINPGSGGTNYNEKFKGRATITADKSTSTAYMELSSLRSEDTAVYFCARNWMNFDYWGQGTTVTVSS VL: DIVMTQTPLSLSVTPGQPASISCRSSKSLLHSNGNTYLYWFLQKPGQSPQFLIYRMSNLASGVPDRFSGSGSGTDFTLKISRVEAEDVGVYYCMQHLEYPYTFGGGTKVEIK |  |  |  |  |  |  |  |  |  |  |  |  |  |  |  | no miRs associated with SIM treatment | ineffective at reducing fibrosis
